The first assay addresses T1, HIV reverse transcriptase (Human immunodeficiency virus type 1 group M subtype B, UniProt P04585).
T1 construct: 5 μl HIV RT enzyme solution at a final enzyme activity of 15 mU per 50 μl reaction; purchased Amersham Life Sciences TRK 1022
As to the kind of experiment: In vitro inhibition of HIV reverse transcriptase (kit TRK 1022, 3H-TTP). The settings on record: HIV RT enzyme, 4 hours at 37° C., no conversion to active metabolite needed. In kind it is biochemical. How it is done:
The assay was run using kit TRK 1022 (Amersham Life Sciences) according to the manufacturer's instructions with slight modifications. Test compounds were diluted in steps of 1/4 in 100% DMSO and subsequently transferred to Medium A (1/50 dilution; medium A: RPMI 1640+10% FetalClone 1+Gentamycin 20 mg/L). 25 μl of compound (in 2% DMSO in Medium A) or 25 μl of 2% DMSO in medium A was added to wells. To each well was added 25.5 μl master mix (master mix: 5 μl primer/template beads, 10 μl assay buffer, 0.5 μl tracer (3H-TTP), 5 μl HIV RT enzyme solution at a final enzyme activity of 15 mU per 50 μl reaction, 5 μl medium A). The plates were sealed, marked as radioactive and incubated during 4 hours at 37° C. Subsequently, 100 μl stop solution was added to each well (except R1). The radioactivity was counted in a TopCount.
`N#Cc1cc2c(c3ccccc3n2CC(O)CN2CCCC2)n(-c2ccc([N+](=O)[O-])cc2)c1=O` (stereo not drawn) [Compound 2, 5-(2-Hydroxy-3-pyrrolidin-1-yl-propyl)-1-(4-nitro-phenyl)-2-oxo-2,5-dihydro-1H-pyrido[3,2-b]indole-3-carbonitrile]: the “inhibition of HIV reverse transcriptase in vitro” value was “inhibit IV reverse transcriptase in vitro”.

For the next assay, the system named is HIV. Description: Cellular assay: anti-viral activity in HIV-infected MT4 cells (MTT). The assay is classed as cell-based. The settings on record: Human immunodeficiency virus 1, 120 h, five days incubation, negative logarithm of EC50. How it is done:
Compounds of the present invention were examined for anti-viral activity in a cellular assay, which was performed according to the following procedure.
HIV- or mock-infected MT4 cells were incubated for five days in the presence of various concentrations of the inhibitor. At the end of the incubation period, the replicating virus in the control cultures has killed all HIV-infected cells in the absence of any inhibitor. Cell viability was determined by measuring the concentration of MTT, a yellow, water soluble tetrazolium dye that is converted to a purple, water insoluble formazan in the mitochondria of living cells only. Upon solubilization of the resulting formazan crystals with isopropanol, the absorbance of the solution was monitored at 540 nm. The values correlate directly to the number of living cells remaining in the culture at the completion of the five day incubation. The inhibitory activity of the compound was monitored on the virus-infected cells and was expressed as EC50 and EC90. These values represent the amount of the compound required to protect 50% and 90%, respectively, of the cells from the cytopathogenic effect of the virus. The toxicity of the compound was measured on the mock-infected cells and was expressed as CC50, which represents the concentration of compound required to inhibit the growth of the cells by 50%. The selectivity index (SI) (ratio CC50/EC50) is an indication of the selectivity of the anti-HIV activity of the inhibitor. Wherever results are reported as e.g. pEC50 or pCC50 values, the result is expressed as the negative logarithm of the result expressed as EC50 or CC50 respectively.
Turning to `N#Cc1cc2c(c3ccccc3n2CCCONC(=N)N)n(-c2ccc([N+](=O)[O-])cc2)c1=O` [Compound 25], the EC50 is 15800 nM. This lies in the double-digit micromolar range.
As for `N#Cc1cc2c(c3ccccc3n2CC(O)CN2CCCC2)n(-c2ccc([N+](=O)[O-])cc2)c1=O` (stereo not drawn) [Compound 2, 5-(2-Hydroxy-3-pyrrolidin-1-yl-propyl)-1-(4-nitro-phenyl)-2-oxo-2,5-dihydro-1H-pyrido[3,2-b]indole-3-carbonitrile], the EC50 was 251 nM.
Same read-out and setting: in the case of `CC1CCCN(CCn2c3ccccc3c3c2cc(C#N)c(=O)n3-c2ccc([N+](=O)[O-])cc2)C1` (stereo not drawn) [Compound 31] it was 1000 nM; in that of `COCCOCCn1c2ccccc2c2c1cc(C#N)c(=O)n2-c1ccc([N+](=O)[O-])cc1` [Compound 4, 5-[2-(2-Methoxy-ethoxy)-ethyl]-1-(4-nitro-phenyl)-2-oxo-2,5-dihydro-1H-pyrido-[3,2-b]indole-3-carbonitrile], 316 nM.
Same read-out and setting: in the case of `COC(Cn1c2ccccc2c2c1cc(C#N)c(=O)n2-c1ccc([N+](=O)[O-])cc1)C[N+](C)(C)C` (stereo not drawn) [Compound 13] it was 15800 nM; in that of `CC1CN(CCn2c3ccccc3c3c2cc(C#N)c(=O)n3-c2ccc([N+](=O)[O-])cc2)CC(C)O1` (stereo not drawn) [Compound 40], 1000 nM.
On the same count and under the same terms, in the case of `N#Cc1cc2oc3ccccc3c2n(-c2ccc([N+](=O)[O-])cc2)c1=O` [Compound 42, 1-(4-Nitro-phenyl)-2-oxo-1,2-dihydro-benzo[4,5]furo[3,2-b]pyridine-3-carbonitrile] it was 794 nM.
In the case of `CC(=O)N1CCN(CCCn2c3ccccc3c3c2cc(C#N)c(=O)n3-c2ccc([N+](=O)[O-])cc2)CC1` [Compound 35], the EC50 was 2510 nM.
On the same count and under the same terms, to `COCCOCCOCCn1c2ccccc2c2c1cc(C#N)c(=O)n2-c1ccc([N+](=O)[O-])cc1` [Compound 11] belongs 1580 nM; to `N#Cc1cc2c(c3ccccc3n2CC(O)CN2CCSCC2)n(-c2ccc([N+](=O)[O-])cc2)c1=O` (stereo not drawn) [Compound 9], 794 nM; to `CC(=O)OC(CN1CCCC1)Cn1c2ccccc2c2c1cc(C#N)c(=O)n2-c1ccc([N+](=O)[O-])cc1` (stereo not drawn) [Compound 21], 501 nM.

For orientation: EC50 means the midpoint of the concentration-response curve. Read a high EC50 as lower potency in that assay.

The values are drawn from patent US20070238727A1, “5-Substituted 1-Phenyl-1,5-Dihydro-Pyrido[3,2-B]Indol-2-Ones and Analogs as Anti-Virals” (Tibotec BVBA, priority 2004, published 2007).
